PubChem BioAssay (NCI)
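In this assay, cells in 96-well plates receive the compound at five concentrations for 48 hours. Endpoints are linearly interpolated between the surrounding concentrations. GI50 marks 50% less growth. Definition used: TGI = concentration required for complete inhibition of growth.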

How the values were obtained:
Experiment in all cases: growth of human tumour cells (NCI), 48 h
[1] = tested on: HCT-116 colon
[2] = tested on: NCI-H460 lung
[3] = tested on: SK-OV-3 ovarian
[4] = tested on: MDA-MB-231 breast
[5] = tested on: NCI-H522 lung
[6] = tested on: IGROV1 ovarian
[7] = tested on: NCI-H226 lung
[8] = tested on: 786-0 renal
[9] = tested on: MDA-MB-435
[10] = tested on: A549 NSCLC
[11] = tested on: UO-31 renal
[12] = tested on: UACC-62 melanoma
[13] = tested on: NCI/ADR-RES ovarian
[14] = tested on: SNB-19 CNS
[15] = tested on: HOP-92 NSCLC
[16] = tested on: SK-MEL-5 melanoma
[17] = tested on: HCT-15 colon
[18] = tested on: K-562 leukemia
[19] = tested on: M14 melanoma
[20] = tested on: HT29 colon
[21] = tested on: LOX IMVI melanoma
[22] = tested on: MOLT-4 leukemia
[23] = tested on: NCI-H23 lung
[24] = tested on: SF-268 CNS
[25] = tested on: CAKI-1 renal
[26] = tested on: KM12 colon
[27] = tested on: COLO 205 colon
[28] = tested on: SF-539 CNS
[29] = tested on: HOP-62 NSCLC
[30] = tested on: ACHN renal
[31] = tested on: OVCAR-4 ovarian
[32] = tested on: SW-620 colon
[33] = tested on: OVCAR-3 ovarian
[34] = tested on: A498 renal
[35] = tested on: PC-3 prostate
[36] = tested on: OVCAR-5 ovarian
[37] = tested on: HCC-2998 colon
[38] = tested on: HS 578T breast
[39] = tested on: U251 CNS
[40] = tested on: SR leukemia
[41] = tested on: UACC-257 melanoma
[42] = tested on: T-47D breast
[43] = tested on: TK-10 renal
[44] = tested on: CCRF-CEM leukemia
[45] = tested on: RPMI-8226 leukemia
[46] = tested on: MCF7 breast
[47] = tested on: SK-MEL-28 melanoma
[48] = tested on: MALME-3M melanoma
[49] = tested on: DU-145 prostate
[50] = tested on: SK-MEL-2 melanoma
[51] = tested on: SN12C renal
[52] = tested on: BT-549 breast
[53] = tested on: RXF 393 renal
[54] = tested on: OVCAR-8 ovarian
[55] = tested on: HL-60(TB) leukemia

Work on `COc1cc2ccnc(C=O)c2cc1OC` yielded a GI50 [1] of 1.92 µM, a TGI [1] of 14.8 µM and a GI50 [2] of over 100 µM. It also gave a TGI [2] of over 100 µM, a GI50 [3] of over 100 µM and a TGI [3] of over 100 µM. For the same compound, the GI50 [4] was 6.51 µM, the TGI [4] was 75.1 µM and the GI50 [5] was 12.5 µM. It also gave a TGI [5] of 31.3 µM, a GI50 [6] of 22.8 µM and a TGI [6] of over 100 µM. For the same compound, the GI50 [7] was 29.9 µM, the TGI [7] was over 100 µM and the GI50 [8] was 18.3 µM. The TGI [8] was over 100 µM, the GI50 [9] was 2.63 µM and the TGI [9] was 24.9 µM. For the same compound, the GI50 [10] was over 100 µM, the TGI [10] was over 100 µM and the GI50 [11] was 3.98 µM. The TGI [11] was 42.2 µM, the GI50 [12] was 6.87 µM and the TGI [12] was 38.1 µM. The GI50 [13] was 16 µM, the TGI [13] was over 100 µM and the GI50 [14] was over 100 µM. For the same compound, the TGI [14] was over 100 µM, the GI50 [15] was 1.18 µM and the TGI [15] was 5.93 µM. It also gave a GI50 [16] of 10.7 µM, a TGI [16] of 23.6 µM and a GI50 [17] of 3.43 µM. It also gave a TGI [17] of over 100 µM, a GI50 [18] of 4.84 µM and a TGI [18] of over 100 µM. It also gave a GI50 [19] of 4.98 µM, a TGI [19] of 28.5 µM and a GI50 [20] of 3.3 µM. It also gave a TGI [20] of over 100 µM, a GI50 [21] of 10.1 µM and a TGI [21] of over 100 µM. For the same compound, the GI50 [22] was 4.52 µM, the TGI [22] was 41.4 µM and the GI50 [23] was 24.9 µM. For the same compound, the TGI [23] was over 100 µM, the GI50 [24] was 23.5 µM and the TGI [24] was over 100 µM. The GI50 [25] was 23 µM, the TGI [25] was 85.2 µM and the GI50 [26] was 31.9 µM. It also gave a TGI [26] of over 100 µM, a GI50 [27] of over 100 µM and a TGI [27] of over 100 µM. For the same compound, the GI50 [28] was 5.65 µM, the TGI [28] was 29.7 µM and the GI50 [29] was 18.2 µM. For the same compound, the TGI [29] was 98.1 µM, the GI50 [30] was 4.71 µM and the TGI [30] was 54.8 µM. It also gave a GI50 [31] of 5.11 µM, a TGI [31] of 24.2 µM and a GI50 [32] of 4.15 µM. The TGI [32] was over 100 µM, the GI50 [33] was 6.36 µM and the TGI [33] was 90.6 µM. It also gave a GI50 [34] of over 100 µM, a TGI [34] of over 100 µM and a GI50 [35] of 23.9 µM. It also gave a TGI [35] of over 100 µM, a GI50 [36] of 17 µM and a TGI [36] of over 100 µM. It also gave a GI50 [37] of 23.8 µM, a TGI [37] of over 100 µM and a GI50 [38] of 23.8 µM. The TGI [38] was over 100 µM, the GI50 [39] was 28.7 µM and the TGI [39] was over 100 µM. It also gave a GI50 [40] of 0.696 µM, a TGI [40] of over 100 µM and a GI50 [41] of 18.9 µM. For the same compound, the TGI [41] was over 100 µM, the GI50 [42] was 14 µM and the TGI [42] was over 100 µM. It also gave a GI50 [43] of 6.02 µM, a TGI [43] of 44.1 µM and a GI50 [44] of 3.08 µM. It also gave a TGI [44] of 22.1 µM, a GI50 [45] of 3.44 µM and a TGI [45] of 34.8 µM. The GI50 [46] was 3.64 µM, the TGI [46] was over 100 µM and the GI50 [47] was 12.4 µM. For the same compound, the TGI [47] was over 100 µM, the GI50 [48] was 14.7 µM and the TGI [48] was over 100 µM. The GI50 [49] was 4.83 µM, the TGI [49] was over 100 µM and the GI50 [50] was 37.1 µM. For the same compound, the TGI [50] was over 100 µM, the GI50 [51] was 12.1 µM and the TGI [51] was over 100 µM. It also gave a GI50 [52] of 2.68 µM, a TGI [52] of 7.14 µM and a GI50 [53] of 1.45 µM. For the same compound, the TGI [53] was 4.98 µM, the GI50 [54] was 5.45 µM and the TGI [54] was 63.4 µM. The GI50 [55] was 2.2 µM and the TGI [55] was 5.89 µM.
